These results are taken from patent US20250268938A1, “SMALL MOLECULE-REGULATED CELL SIGNALING EXPRESSION SYSTEM” (Outpace Bio, Inc., priority 2021, published 2025).

For assay [1], the system named is Jurkat CD3ζ-signaling reporter line. The experiment in a line: CAR signaling (tdTomato) in Jurkat CD3ζ-signaling reporter line. Type of assay: cell-based. The note with it: for CAR signaling, tdTomato intensity, drug switch: grazoprevir at time zero, washed and danoprevir at 48 hours, tracked additional 72 hours. The protocol: (§1) For IncuCyte analysis of CD3ζ-signaling tdTomato reporter line with CARs and DNCR2-casp-9 kill switch (with EGFP transduction maker), 5e4 CAR+ cells were plated per well in poly-D-Lys coated plate in which 5e4 Jeko1 cells were previously seeded. Drug (e.g., grazoprevir, danoprevir) was added to given final concentration and cells were imaged for tdTomato and EGFP signal at 20×, 800 msec exposure, 4 images/well, every 3 hours. Cells were removed from the Incucyte plate to a v-bottom plate for 2 washes in PBS at 48 hours when the drug condition was changed.
(§2) Coculture for flow analysis of the CAR/kill switch constructs was setup 24 hours before analysis. CAR-positive cells (le5 cells; part I and part II positive, i.e., ROR1+ and EGFRt+ (part II marker)) were mixed with le5 Jeko1 cells and drug. Cells were analyzed for ROR1, EGFRt ([…]), tdTomato, EGFP, and viability as described hereinbelow.
(§3) To evaluate the use of two drug inputs to control two different signaling outputs, we used a Jurkat cell CD3ζ-signaling reporter line expressing the red fluorescent protein tdTomato to track CAR signaling, and the loss of the transduction marker (EGFP) of the DNCR2-caspase-9 construct to track Jurkat cell death.
(§4) We tested the ability to switch between CAR signaling and induction of apoptosis over time in an IncuCyte assay. Briefly, the CD3ζ-signaling reporter line expressing the dual-function GNCR1-CAR/DNCR2-casp9 was mixed 1:1 with Jeko1 cells and treated with 500 nM grazoprevir or danoprevir, or DMSO. Over a period of 48 hours, CAR signaling was tracked by tdTomato intensity and drug-induced cell death (i.e., activation of the safety switch) was monitored by tracking the transduction marker EGFP intensity.
(§5) We then tested the ability to switch from induction of CAR signaling with grazoprevir to induction of apoptosis with danoprevir. Briefly, CAR signaling was activated by grazoprevir treatment at time zero. After 48 hours, the cells were washed and treated with danoprevir. CAR signaling (tdTomato intensity) and cell viability (EGFP intensity) were tracked over an additional 72-hour period.

Assay [2] has the same test system. The experiment in a line: Drug-induced cell death (loss of EGFP transduction marker) in Jurkat CD3ζ-signaling reporter line. Type of assay: cell-based. The method, then: as §1, §2
Percent killing was calculated by gating on live cells, then calculating 100*((percent GFP positive DMSO condition)−(percent GFP positive drug condition))/(percent GFP positive DMSO condition).
as §3, §4, §5

In the next assay the test system is Jurkat cells. The experiment in a line: Kill switch percent killing in Jurkat cells (flow cytometry). It counts as cell-based. The protocol:
Kill switch-positive cells (le5) were incubated for 24-48 hours with inducer drug before staining and analysis for death. Conditions were normalized to contain about 50% transduction positive (+) cells by adding untransduced Jurkat or primary T cells in order to get accurate statistics on death.
Flow cytometry was performed on a Ze5 cytometer (Biorad). To determine expression of markers, between 1×10^5-2×10^5 total cells were transferred to a U-bottom 96 well culture dish (Corning). Cells were washed twice with Cell Staining Buffer (BioLegend), then stained with Zombie Violet (1:1000, BioLegend) and ROR1-FC for ROR1-specific CAR constructs (20 min at room temperature). Cells were washed twice in Cell Staining Buffer, then stained with Annexin V-PE (BD) in 1× Annexin V Binding Buffer (BD) for 15 min at room temperature. After staining, cells were washed once with Annexin V Binding Buffer, resuspended in AnneinV Binding Buffer and immediately analyzed.
(§6) Flow cytometry data was analyzed using FlowJo 10 (Tree Star). Percent killing was calculated by gating on live cells, then calculating 100*((percent GFP positive DMSO condition)−(percent GFP positive drug condition))/(percent GFP positive DMSO condition).
We first tested for drug-induced death of Jurkat cells by fusing NS3a and DNCR2 separately to the catalytic domain of caspase-9 (NCDC). The small molecule inducible homodimer FKBP-F36V (iCasp9), which is dimerized by AP1903 (rimiducid) and the inducible heterodimer FKBP/rapamycin/FRB dimer (rapaCasp9) were used as controls. Briefly, Jurkat cells expressing NCDC, iCasp9, or rapaCasp9 were exposed to danoprevir, rimiducid or rapamycin, respectively, for 24 hours and analyzed by flow cytometry with gating set to measure killing in the top about 10% of cells expressing the highest amount of the GFP kill switch transduction marker.
To evaluate the kill switch designs of FIG. 8A, constructs were expressed in Jurkat cells, treated with 500 nM danoprevir (DNCR2-casp-9) or 500 nM grazoprevir (GNCR1-casp-9) and cell death measured by percent killing as described herein above.
The miniaturized versions of DNCR2, D1 and D9, were fused to caspase-9 and co-expressed in Jurkat cells with homo-oligomerized NS3a scaffolds. We also evaluated a CAR construct that included an additional copy of NS3a (CAR-2×NS3a). The original DNCR2-casp-9 was used as a control. Jurkat cells expressing different DNCR2 variants fused to caspase-9 along with CAR-NS3a, CAR-NS3a-NS3a, or dimer-NS3a were treated with 500 nM danoprevir and cell death was measured by percent killing as described herein above.
We explored the ability of other human killing domains to induce cell death in Jurkat and primary human T cells. We fused FKBP-F36V to a panel of killing domains that included caspase-9 D330A, caspase-9, caspase-1, caspase-4, and the necroptosis-inducing protein RIPK3. Briefly, Jurkat and primary human CD4+/CD8+ T cells expressing FKBP(F36V)-fused killing domains were treated with 10 nM rimiducid and cell death was measured by percent killing as described herein above.

Another assay deals with danoprevir/NS3a complex. As to conditions: cited from earlier work.
Assay [3] relates to primary human CD4+/CD8+ T cells. The experiment in a line: Kill switch percent killing in primary human T cells. The note with it: 10 nM rimiducid, range of transduction levels. It counts as cell-based. The protocol: Pre-selected, cryopreserved primary human CD4 T cells from normal donors were obtained from Bloodworks (Seattle WA). Human T cells were cultured in OpTmizer medium (Thermo Fisher) supplemented with Immune Cell Serum Replacement (Thermo Fisher), 2 mM L-glutamine (Gibco), 2 mM Glutamax (Gibco), 200 IU/ml IL-2 (R&D systems), 120 IU/ml IL-7 (R&D systems), and 20 IU/ml IL-15 (R&D systems).
For lentiviral transduction, T cells were stimulated with a 1:100 dilution of T cell TransAct (Miltenyi) for 30 hours. Virus was then added to T cells for 18-24 hours. […]
Flow cytometry was performed on a Ze5 cytometer (Biorad). […] After staining, cells were washed once with Annexin V Binding Buffer, resuspended in AnneinV Binding Buffer and immediately analyzed.
as §6
We explored the ability of other human killing domains to induce cell death in Jurkat and primary human T cells. […] Briefly, Jurkat and primary human CD4+/CD8+ T cells expressing FKBP(F36V)-fused killing domains were treated with 10 nM rimiducid and cell death was measured by percent killing as described herein above.

Assay [4] relates to CD69 expression in CAR expressing Jurkat cells. Nature of the assay: Induction of CD69 expression in CAR expressing Jurkat cells co-cultured with Jeko1 cells (flow cytometry). It counts as cell-based. As to conditions: conventional single-chain ROR1-CAR Jurkat cells with Jeko1 cells; 500 nM danoprevir. The protocol: NS3a-based regulated CARs were evaluated using lentiviral transduction of T cells and flow cytometry analysis. The CARs evaluated are specific for the ROR1 antigen expressed on the target cell line Jeko1. The Jurkat and Jeko1 cell lines were obtained from American Type Culture Collection (Manassas, VA) and maintained in RPMI 1640 media with Glutamax (Gibco) containing 10% fetal calf serum (Gibco). For lentiviral transduction, Jurkat cells were incubated with lentivirus in complete media plus LentiBOOST at the manufacturers recommended concentration (Sirion Biotech). Eighteen hours after transfection, lentivirus and LentiBOOST were diluted by addition of 1 volume fresh media.
For flow analysis of induction of CD69 expression, Jurkat cells were mixed 1:1 with Jeko1 cells or Jeko1-ROR1-KO cells. Drug was added to a final concentration of 500 nM. Cultures were incubated with drug for 24 hours before flow analysis for surface markers.
Flow cytometry of CAR experiments was performed on a Ze5 cytometer (Biorad). […] Flow cytometry data was analyzed using FlowJo 10 (Tree Star).
The three NS3a-based regulated CARs described hereinabove with reference to FIG. 1B were evaluated in the Jurkat cell line. […] CD69 expression, a T cell activation marker, was detected by flow cytometry, gating on live CD3+/ROR1+ cells.
A general note: In flow cytometry, cells or beads pass a laser one at a time.

[5] abbreviates: IncuCyte, over 48 hours, GNCR1-CAR/DNCR2-casp9 cells 1:1 with Jeko1, 500 nM drug.

As for `CC(C)(C)OC(=O)N[C@H]1CCCCC/C=C\[C@@H]2C[C@@]2(C(=O)NS(=O)(=O)C2CC2)NC(=O)[C@@H]2C[C@@H](OC(=O)N3Cc4cccc(F)c4C3)CN2C1=O` [danoprevir, (2R,6S,12Z,13aS,14aR,16aS)-14a-[(Cyclopropylsulfonyl)carbamoyl]-6-({[(2-methyl-2-propanyl)oxy]carbonyl}amino)-5,16-dioxo-1,2,3,5,6,7,8,9,10,11,13a,14,14a,15,16,16a-hexadecahydrocyclopropa[e]pyrrolo[1,2-a][1,4]diazacyclopentadecin-2-yl 4-fluoro-1,3-dihydro-2H-isoindole-2-carboxylate], the “CAR signaling, tdTomato intensity, drug switch” value in assay [1] was “declines”. In addition, the “effect on Jurkat cells expressing a conventional CAR with DNCR2-casp-9” value in assay [2] (500 nM drug) is given as “no effect”. Moreover, the “percent killing (safety-switch)” value in assay [2] (GNCR1-CAR/DNCR2-casp-9 system, 500 nM drug, loss of EGFP-positive population relative to DMSO) is on record as “triggered”. Further, the “cell viability, EGFP intensity” value in assay [2] (setting [5]) is listed as “decreased cell viability”. Moreover, in assay [2] (danoprevir added at 48 hours, with or without previous grazoprevir treatment), the “cell viability, EGFP signal, drug switch” value is reported as “began to drop”. The “percent killing, two-chain direct dimerization design NCDC” value in the assay with Jurkat cells (NS3a-casp-9/DNCR2-casp-9 (NCDC), drug titration, 24 hours, top about 10% GFP-expressing Jurkat cells) is “modest killing”.
As for `C=C[C@@H]1C[C@]1(NC(=O)[C@@H]1C[C@@H]2CN1C(=O)[C@H](C(C)(C)C)NC(=O)O[C@@H]1C[C@H]1CCCCCc1nc3ccc(OC)cc3nc1O2)C(=O)NS(=O)(=O)C1CC1.O` [grazoprevir], in assay [1] (setting [5]), the “CAR signaling, tdTomato intensity” value is listed as “only activated”. Besides, in assay [1] (dual-function GNCR1-CAR/DNCR2-casp-9, 500 nM drug, flow cytometry), the “CAR signaling, tdTomato gMFI” value is given as “activated”. The “CAR signaling, tdTomato intensity, drug switch” value in assay [1] is given as “increases”. Moreover, in assay [2] (500 nM drug), the “effect on Jurkat cells expressing a conventional CAR with DNCR2-casp-9” value was “no effect”.
As for “DNCR2: danoprevir/NS3 complex reader polypeptide (SSDEEEARELIERAKEAAERAQEAAERTGDPRVRELARELKRLAQEAAEEVKRDPSSSD)”, in the assay on danoprevir/NS3a complex, the “affinity for the danoprevir/NS3a complex” value is reported as “high affinity”.
As to “RIPK3: FKBP-F36V fused to the necroptosis-inducing protein RIPK3”, the “percent killing, FKBP(F36V)-fused killing domains” value in assay [3] is given as “not able to induce cell death”; in the assay on Jurkat cells (Jurkat cells, 10 nM rimiducid, range of transduction levels), “not able to induce cell death”.

B1: Conventional CAR: conventional, single-chain ROR1-CAR (protein)
chain: CPPCPMFWVLVVVGGVLACYSLLVTVAFIIFWVKRGRKKLLYIFKQPFMRPVQTTQEEDGCSCRFPEEEEGGCELRVKFSRSADAPAYQQGQNQLYNELNLGRREEYDVLDKRRGRDPEMGGKPRRKNPQEGLYNELQKDKMAEAYSEIGMKGERRRGKGHDGLYQGLSTATKDTYDALHMQALPPR
As for B1, the “CD69 expression, regulation in response to danoprevir” value in assay [4] was “no significant regulation”.
